Laboratory results taken from patent US10370360B2, “Small-molecule inhibitors targeting discoidin domain receptor 1 and uses thereof” (priority 2014, dated 2019).
Where two headings read alike, the source gives them in different places.

Legend:
DDR2 = DDR2 (Homo sapiens (Human), UniProt Q16832); assay: LanthaScreen Eu kinase activity assay, DDR2; format: biochemical; settings: 100 nM ATP
c-Kit = c-Kit (Homo sapiens (Human), UniProt P10721); assay: FRET-based Z'-Lyte kinase assay, c-kit; format: biochemical; settings: 300 μM ATP
Bcr-Abl [1] = assay: FRET-based Z'-Lyte kinase assay, Abl; format: biochemical; settings: 10 μM ATP; cells printed in μM
DDR1 = DDR1 (Homo sapiens (Human), UniProt Q08345); assay: LanthaScreen Eu kinase activity assay, DDR1; format: biochemical; settings: 100 nM ATP
PANC-1 cells = assay: MTS viability assay, PANC-1; format: cell-based; settings: Homo sapiens
AsPC-1 cells = assay: MTS viability assay, AsPC-1; format: cell-based; settings: Homo sapiens
Bcr-Abl [2] = target: Bcr-Abl (Homo sapiens, UniProt P00519); assay: FRET-based Z'-Lyte kinase assay, Abl; format: biochemical; settings: 10 μM ATP; cells printed in μM
human PDA cell lines [3] = assay: liquid colony forming assay; format: cell-based; settings: concentration-dependent, 1.5-2 weeks
orthotopic AsPC-1 tumors = assay: survival study, orthotopic AsPC-1 xenograft in NOD-SCID mice; format: in vivo, mouse
KPC mice (PDA) = assay: survival study, KPC genetically engineered mouse model of PDA; format: in vivo
human PDA cell lines [4] = settings: concentration-dependent, 30 hour
[5] = rats; Gao et al., 2013; cited from earlier work

c-Kit, sequence (P10721 26-976): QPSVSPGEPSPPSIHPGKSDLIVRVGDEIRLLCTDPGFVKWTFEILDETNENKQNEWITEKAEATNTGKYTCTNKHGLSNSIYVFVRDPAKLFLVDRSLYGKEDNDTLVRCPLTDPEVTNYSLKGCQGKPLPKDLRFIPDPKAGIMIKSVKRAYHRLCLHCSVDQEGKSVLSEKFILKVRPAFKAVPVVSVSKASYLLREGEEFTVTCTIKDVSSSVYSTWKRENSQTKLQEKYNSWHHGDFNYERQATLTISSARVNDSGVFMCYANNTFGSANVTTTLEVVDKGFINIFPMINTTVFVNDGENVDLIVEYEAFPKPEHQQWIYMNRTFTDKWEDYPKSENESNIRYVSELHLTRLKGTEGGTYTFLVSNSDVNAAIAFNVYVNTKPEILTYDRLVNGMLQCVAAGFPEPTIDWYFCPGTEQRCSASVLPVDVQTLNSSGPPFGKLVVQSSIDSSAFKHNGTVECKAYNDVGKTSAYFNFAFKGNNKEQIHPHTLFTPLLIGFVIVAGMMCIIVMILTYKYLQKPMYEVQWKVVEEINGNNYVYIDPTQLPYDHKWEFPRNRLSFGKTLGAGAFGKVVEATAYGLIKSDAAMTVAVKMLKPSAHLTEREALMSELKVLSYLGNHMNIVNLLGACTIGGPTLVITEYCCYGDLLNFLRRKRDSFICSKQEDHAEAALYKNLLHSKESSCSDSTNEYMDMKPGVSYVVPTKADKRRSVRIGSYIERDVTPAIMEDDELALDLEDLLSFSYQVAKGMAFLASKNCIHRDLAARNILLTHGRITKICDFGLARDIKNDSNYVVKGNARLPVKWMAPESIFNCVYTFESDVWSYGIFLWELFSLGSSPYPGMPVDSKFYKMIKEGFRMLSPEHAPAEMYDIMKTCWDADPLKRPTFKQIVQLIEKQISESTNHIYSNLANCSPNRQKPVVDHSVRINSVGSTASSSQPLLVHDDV
DDR1, sequence (Q08345 19-913): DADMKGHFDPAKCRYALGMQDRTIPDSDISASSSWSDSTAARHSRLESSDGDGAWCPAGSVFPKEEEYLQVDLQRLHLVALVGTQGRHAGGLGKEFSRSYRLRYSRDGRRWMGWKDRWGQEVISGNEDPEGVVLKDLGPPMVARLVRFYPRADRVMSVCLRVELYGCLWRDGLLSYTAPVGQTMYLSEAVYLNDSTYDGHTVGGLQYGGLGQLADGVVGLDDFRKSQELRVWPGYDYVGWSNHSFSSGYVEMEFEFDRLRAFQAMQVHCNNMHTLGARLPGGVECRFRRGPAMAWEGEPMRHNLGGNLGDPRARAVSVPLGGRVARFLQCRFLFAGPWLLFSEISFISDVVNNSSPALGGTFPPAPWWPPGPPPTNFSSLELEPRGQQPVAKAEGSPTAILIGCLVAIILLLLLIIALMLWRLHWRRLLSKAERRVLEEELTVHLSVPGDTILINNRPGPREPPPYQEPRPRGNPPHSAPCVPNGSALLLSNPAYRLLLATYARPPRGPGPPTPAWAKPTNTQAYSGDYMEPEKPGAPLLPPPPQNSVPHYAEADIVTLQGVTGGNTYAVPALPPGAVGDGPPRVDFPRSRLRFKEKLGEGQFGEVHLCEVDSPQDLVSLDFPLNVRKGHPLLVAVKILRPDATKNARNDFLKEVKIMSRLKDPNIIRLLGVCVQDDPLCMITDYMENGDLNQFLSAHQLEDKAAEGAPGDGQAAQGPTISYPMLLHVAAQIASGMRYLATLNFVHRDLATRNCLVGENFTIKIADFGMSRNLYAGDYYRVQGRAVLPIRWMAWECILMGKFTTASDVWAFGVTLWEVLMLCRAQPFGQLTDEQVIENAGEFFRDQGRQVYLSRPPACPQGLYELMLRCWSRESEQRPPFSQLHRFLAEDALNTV
Bcr-Abl, sequence (P00519 whole entry): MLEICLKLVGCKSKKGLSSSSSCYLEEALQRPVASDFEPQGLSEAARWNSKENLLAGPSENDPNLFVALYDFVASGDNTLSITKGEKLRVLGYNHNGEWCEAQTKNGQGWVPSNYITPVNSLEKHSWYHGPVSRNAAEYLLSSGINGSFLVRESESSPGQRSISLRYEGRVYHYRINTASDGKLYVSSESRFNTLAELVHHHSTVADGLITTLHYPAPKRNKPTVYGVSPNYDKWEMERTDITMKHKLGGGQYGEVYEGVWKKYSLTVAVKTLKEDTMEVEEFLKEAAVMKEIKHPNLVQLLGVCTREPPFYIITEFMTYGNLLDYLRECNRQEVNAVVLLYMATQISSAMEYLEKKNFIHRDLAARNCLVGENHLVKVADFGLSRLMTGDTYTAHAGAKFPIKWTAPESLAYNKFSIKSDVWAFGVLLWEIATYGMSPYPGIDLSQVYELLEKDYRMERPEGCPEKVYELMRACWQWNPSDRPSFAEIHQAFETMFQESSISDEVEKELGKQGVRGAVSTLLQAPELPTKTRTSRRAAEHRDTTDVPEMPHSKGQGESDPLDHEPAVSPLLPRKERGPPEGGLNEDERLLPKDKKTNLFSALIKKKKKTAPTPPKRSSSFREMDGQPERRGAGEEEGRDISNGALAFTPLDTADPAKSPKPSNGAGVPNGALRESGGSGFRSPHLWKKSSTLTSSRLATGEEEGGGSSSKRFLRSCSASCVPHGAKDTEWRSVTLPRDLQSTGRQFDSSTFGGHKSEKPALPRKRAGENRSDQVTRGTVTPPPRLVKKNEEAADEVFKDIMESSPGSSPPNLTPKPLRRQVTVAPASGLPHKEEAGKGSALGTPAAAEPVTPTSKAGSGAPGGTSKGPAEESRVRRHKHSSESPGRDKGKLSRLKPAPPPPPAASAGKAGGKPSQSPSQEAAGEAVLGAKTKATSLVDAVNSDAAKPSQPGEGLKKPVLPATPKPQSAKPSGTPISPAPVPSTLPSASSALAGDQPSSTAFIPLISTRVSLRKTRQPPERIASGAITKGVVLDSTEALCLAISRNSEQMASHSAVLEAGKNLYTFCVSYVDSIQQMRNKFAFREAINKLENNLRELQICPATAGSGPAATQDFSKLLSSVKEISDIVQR
DDR2, sequence (Q16832 22-855): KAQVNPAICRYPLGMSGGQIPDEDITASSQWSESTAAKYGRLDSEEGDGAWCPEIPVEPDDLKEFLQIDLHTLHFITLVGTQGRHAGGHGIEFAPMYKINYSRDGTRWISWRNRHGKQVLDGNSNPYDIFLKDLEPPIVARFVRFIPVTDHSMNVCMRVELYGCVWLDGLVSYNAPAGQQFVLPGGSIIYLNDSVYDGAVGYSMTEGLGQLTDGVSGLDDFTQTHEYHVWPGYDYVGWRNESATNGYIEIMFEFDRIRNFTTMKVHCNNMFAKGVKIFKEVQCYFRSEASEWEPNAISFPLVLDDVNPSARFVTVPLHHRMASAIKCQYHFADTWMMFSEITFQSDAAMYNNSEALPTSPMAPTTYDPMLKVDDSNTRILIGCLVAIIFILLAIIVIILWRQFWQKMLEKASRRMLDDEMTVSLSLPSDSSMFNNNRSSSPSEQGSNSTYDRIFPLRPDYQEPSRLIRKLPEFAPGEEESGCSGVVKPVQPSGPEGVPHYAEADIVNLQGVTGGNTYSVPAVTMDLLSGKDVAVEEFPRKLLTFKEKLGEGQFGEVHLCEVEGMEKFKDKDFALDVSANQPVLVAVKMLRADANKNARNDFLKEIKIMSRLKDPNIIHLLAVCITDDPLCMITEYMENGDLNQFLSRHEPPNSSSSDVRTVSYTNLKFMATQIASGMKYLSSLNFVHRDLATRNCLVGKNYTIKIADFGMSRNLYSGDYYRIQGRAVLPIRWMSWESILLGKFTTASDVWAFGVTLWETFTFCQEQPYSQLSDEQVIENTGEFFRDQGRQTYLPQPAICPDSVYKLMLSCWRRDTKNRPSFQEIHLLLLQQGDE
Bcr-Abl (Homo sapiens, UniProt P00519), sequence (P00519 whole entry): as the sequence (P00519 whole entry) above

## CC1CN(c2cncnc2)Cc2cc(C(=O)Nc3cc(CN4CCCC4)cc(C(F)(F)F)c3)ccc21 (stereo not shown) [Example 20, 4-methyl-2-(pyrimidin-5-yl)-N-(3-(pyrrolidin-1-ylmethyl)-5-(trifluoromethyl)phenyl)-1,2,3,4-tetrahydroisoquinoline-7-carboxamide]
DDR2; cells printed in μM
  IC50: 2.3 µM
c-Kit
  IC50: > 10000 nM
Bcr-Abl [1]
  IC50: > 10 µM
DDR1
  IC50: 222 nM

## CC1CN(c2cncnc2)Cc2cc(C(=O)Nc3cccc(C(F)(F)F)c3)ccc21 (stereo not shown) [Example 13, 4-methyl-2-(pyrimidin-5-yl)-N-(3-(trifluoromethyl)phenyl)-1,2,3,4-tetrahydroisoquinoline-7-carboxamide]
DDR2; cells printed in μM
  IC50: 10 µM
c-Kit
  IC50: > 10000 nM
Bcr-Abl [1]
  IC50: > 10 µM
DDR1
  IC50: 191 nM

## Nc1ccn([C@@H]2O[C@H](CO)[C@@H](O)C2(F)F)c(=O)n1 [Gemcitabine, gemcitabine]
PANC-1 cells; PANC-1, PANC-1, collagen coating, single agent, read-out: Gemcitabine (nM) Avg IC50s Collagen
  IC50: 2000 nM
PANC-1 cells; PANC-1, PANC-1, plastic coating, single agent, read-out: Gemcitabine (nM) Avg IC50s Plastic
  IC50: > 2000 nM
PANC-1 cells; PANC-1, read-out: 500 nM 7rh + Gem Avg IC50s Plastic, PANC-1, plastic, fixed 500 nM 7rh with gemcitabine titration
  IC50: ≤ 2 nM
AsPC-1 cells; ASPC1, AsPC-1, collagen coating, single agent, read-out: Gemcitabine (nM) Avg IC50s Collagen
  IC50: 2000 nM
AsPC-1 cells; ASPC1, AsPC-1, plastic coating, single agent, read-out: Gemcitabine (nM) Avg IC50s Plastic
  IC50: > 2000 nM
AsPC-1 cells; ASPC1, read-out: 500 nM 7rh + Gem Avg IC50s Plastic, AsPC-1, plastic, fixed 500 nM 7rh with gemcitabine titration
  IC50: ≤ 2 nM

## CC1CN(c2cncnc2)Cc2cc(C(=O)Nc3cc(CN4CCCCC4)cc(C(F)(F)F)c3)ccc21 (stereo not shown) [Example 19, 4-methyl-N-(3-(piperidin-1-ylmethyl)-5-(trifluoromethyl)phenyl)-2-(pyrimidin-5-yl)-1,2,3,4-tetrahydroisoquinoline-7-carboxamide]
DDR2; cells printed in μM
  IC50: 2.2 µM
c-Kit
  IC50: > 10000 nM
Bcr-Abl [1]
  IC50: > 10 µM
DDR1
  IC50: 166 nM

## Cc1cn(-c2cc(NC(=O)c3ccc4c(c3)CN(c3cncnc3)CC4C)cc(C(F)(F)F)c2)cn1 (stereo not shown) [Example 26, 4-methyl-N-(3-(4-methyl-1H-imidazol-1-yl)-5-(trifluoromethyl)phenyl)-2-(pyrimidin-5-yl)-1,2,3,4-tetrahydroisoquinoline-7-carboxamide]
c-Kit
  IC50: > 10000 nM
Bcr-Abl [2]
  IC50: 7.2 µM

## CCN1CCN(Cc2cc(NC(=O)c3ccc4c(c3)CN(c3cncnc3)CC4C)cc(C(F)(F)F)c2)CC1 (stereo not shown) [Example 17, N-(3-((4-ethylpiperazin-1-yl)methyl)-5-(trifluoromethyl)phenyl)-4-methyl-2-(pyrimidin-5-yl)-1,2,3,4-tetrahydroisoquinoline-7-carboxamide]
DDR2; cells without unit
  IC50: 0.527 µM
c-Kit
  IC50: > 10000 nM
Bcr-Abl [1]
  IC50: > 10 µM
DDR1
  IC50: 39.1 nM

## CC1CN(c2cncnc2)Cc2cc(C(=O)Nc3cc(N4CCN(C)CC4)cc(C(F)(F)F)c3)ccc21 (stereo not shown) [Example 11]
DDR2; cells printed in μM
  IC50: 2.2 µM
c-Kit
  IC50: > 10000 nM
Bcr-Abl [1]
  IC50: > 10 µM
DDR1
  IC50: 132 nM

## CC1CN(c2cncnc2)Cc2cc(C(=O)Nc3cc(CN4CCOCC4)cc(C(F)(F)F)c3)ccc21 (stereo not shown) [Example 18, 4-methyl-N-(3-(morpholinomethyl)-5-(trifluoromethyl)phenyl)-2-(pyrimidin-5-yl)-1,2,3,4-tetrahydroisoquinoline-7-carboxamide]
DDR2; cells printed in μM
  IC50: 4.5 µM
c-Kit
  IC50: > 10000 nM
Bcr-Abl [1]
  IC50: > 10 µM
DDR1
  IC50: 193 nM

## CC1CN(c2cncnc2)Cc2cc(C(=O)Nc3cc(CCN4CCN(C)CC4)cc(C(F)(F)F)c3)ccc21 (stereo not shown) [Example 10, 4-methyl-N-(3-(2-(4-methylpiperazin-1-yl)ethyl)-5-(trifluoromethyl)phenyl)-2-(pyrimidin-5-yl)-1,2,3,4-tetrahydroisoquinoline-7-carboxamide]
DDR2; cells without unit
  IC50: 0.449 µM
c-Kit
  IC50: > 10000 nM
Bcr-Abl [1]
  IC50: > 10 µM
DDR1
  IC50: 36.7 nM

## CC1CN(c2cncnc2)Cc2cc(C(=O)Nc3cc(CN4CCSCC4)cc(C(F)(F)F)c3)ccc21 (stereo not shown) [Example 35, 4-methyl-2-(pyrimidin-5-yl)-N-(3-(thiomorpholinomethyl)-5-(trifluoromethyl)phenyl)-1,2,3,4-tetrahydroisoquinoline-7-carboxamide]
DDR2; cells printed in μM
  IC50: 3.7 µM
c-Kit
  IC50: > 10000 nM
Bcr-Abl [1]
  IC50: > 10 µM
DDR1
  IC50: 209 nM

## CC1CN(c2cncnc2)Cc2cc(C(=O)Nc3cc(CN(C)C)cc(C(F)(F)F)c3)ccc21 (stereo not shown) [Example 21, N-(3-((dimethylamino)methyl)-5-(trifluoromethyl)phenyl)-4-methyl-2-(pyrimidin-5-yl)-1,2,3,4-tetrahydroisoquinoline-7-carboxamide]
DDR2; cells printed in μM
  IC50: 6.7 µM
c-Kit
  IC50: > 10000 nM
Bcr-Abl [1]
  IC50: > 10 µM
DDR1
  IC50: 254 nM

## CCc1ccc(C(=O)Nc2cc(CN3CCN(C)CC3)cc(C(F)(F)F)c2)cc1C#Cc1cnc2ccnn2c1 [Example 7rh, 3-(2-(Pyrazolo[1,5-a]pyrimidin-6-yl)-ethynyl) 7rh benzamide]
Human PDA cell lines [3]
  colony formation: reduced
Orthotopic AsPC-1 tumors; orthotopic AsPC-1, tumor weight vs survival days
  primary tumor growth compared to vehicle: reduced
Orthotopic AsPC-1 tumors; orthotopic AsPC-1, therapy from day 27 post tumor cell injection, 7rh 25 mg/kg 3×/week oral
  median overall survival: 57 days
KPC mice (PDA); KPC mice enrolled at 4 months of age, 7rh 25 mg/kg 3×/week oral
  median of survival: 159 days
KPC mice (PDA); KPC mice, tumor weight vs survival days
  primary tumor growth compared to vehicle: reduced
Human PDA cell lines [4]
  cell migration: reduced
[5]
  in vivo half-life: ~12 h

## CC1Cc2ccc(C(=O)Nc3cc(CN4CCN(C)CC4)cc(C(F)(F)F)c3)cc2CN1c1cncnc1 (stereo not shown) [Example 30, 3-methyl-N-(3-((4-methylpiperazin-1-yl)methyl)-5-(trifluoromethyl)phenyl)-2-(pyrimidin-5-yl)-1,2,3,4-tetrahydroisoquinoline-7-carboxamide]
DDR2; cells printed in μM
  IC50: 7.6 µM
c-Kit
  IC50: > 10000 nM
Bcr-Abl [1]
  IC50: > 10 µM
DDR1
  IC50: 544 nM

## CC1CN(c2cncnc2)Cc2cc(C(=O)Nc3cc(CN4CCN(C5CCCCC5)CC4)cc(C(F)(F)F)c3)ccc21 (stereo not shown) [Example 33, N-(3-((4-cyclohexylpiperazin-1-yl)methyl)-5-(trifluoromethyl)phenyl)-4-methyl-2-(pyrimidin-5-yl)-1,2,3,4-tetrahydroisoquinoline-7-carboxamide]
DDR2; cells without unit
  IC50: 0.945 µM
c-Kit
  IC50: > 10000 nM
Bcr-Abl [1]
  IC50: > 10 µM
DDR1
  IC50: 79.9 nM

## CCc1cc(CN2CCN(C)CC2)cc(NC(=O)c2ccc3c(c2)CN(c2cncnc2)CC3C)c1 (stereo not shown) [Example 15, N-(3-ethyl-5-((4-methylpiperazin-1-yl)methyl)phenyl)-4-methyl-2-(pyrimidin-5-yl)-1,2,3,4-tetrahydroisoquinoline-7-carboxamide]
DDR2; cells printed in μM
  IC50: 1.4 µM
c-Kit
  IC50: > 10000 nM
Bcr-Abl [1]
  IC50: > 10 µM
DDR1
  IC50: 50.5 nM

## CC1CN(c2cncnc2)Cc2cc(C(=O)Nc3cc(CN4CCCN(C)CC4)cc(C(F)(F)F)c3)ccc21 (stereo not shown) [Example 14, 4-methyl-N-(3-((4-methyl-1,4-diazepan-1-yl)methyl)-5-(trifluoromethyl)phenyl)-2-(pyrimidin-5-yl)-1,2,3,4-tetrahydroisoquinoline-7-carboxamide]
DDR2; cells without unit
  IC50: 0.604 µM
c-Kit
  IC50: > 10000 nM
Bcr-Abl [1]
  IC50: > 10 µM
DDR1
  IC50: 25.6 nM

## CC1CN(c2cncnc2)Cc2cc(C(=O)Nc3cc(CN4CCN(C)CC4)cc(C4CCCCC4)c3)ccc21 (stereo not shown) [Example 22, N-(3-cyclohexyl-5-((4-methylpiperazin-1-yl)methyl)phenyl)-4-methyl-2-(pyrimidin-5-yl)-1,2,3,4-tetrahydroisoquinoline-7-carboxamide]
DDR2; cells without unit
  IC50: 0.457 µM
c-Kit
  IC50: > 10000 nM
Bcr-Abl [1]
  IC50: > 10 µM
DDR1
  IC50: 71.6 nM

## CN1CCN(Cc2cc(NC(=O)c3ccc4c(c3)CN(c3cncnc3)CC4(C)C)cc(C(F)(F)F)c2)CC1 [Example 7, 4,4-dimethyl-N-(3-((4-methylpiperazin-1-yl)methyl)-5-(trifluoromethyl)phenyl)-2-(pyrimidin-5-yl)-1,2,3,4-tetrahydroisoquinoline-7-carboxamide]
DDR2; cells printed in μM
  IC50: 4.5 µM
c-Kit
  IC50: > 10000 nM
Bcr-Abl [1]
  IC50: > 10 µM
DDR1
  IC50: 223 nM

## CC(C)c1cc(CN2CCN(C)CC2)cc(NC(=O)c2ccc3c(c2)CN(c2cncnc2)CC3C)c1 (stereo not shown) [Example 16, N-(3-isopropyl-5-((4-methylpiperazin-1-yl)methyl)phenyl)-4-methyl-2-(pyrimidin-5-yl)-1,2,3,4-tetrahydroisoquinoline-7-carboxamide]
DDR2; cells without unit
  IC50: 0.647 µM
c-Kit
  IC50: > 10000 nM
Bcr-Abl [1]
  IC50: 7.2 µM
DDR1
  IC50: 35.7 nM

## CC1CN(c2cncnc2)Cc2cc(C(=O)Nc3cc(CN4CCN(C)CC4)cc(C(C)(C)C)c3)ccc21 (stereo not shown) [Example 28, N-(3-tert-butyl-5-((4-methylpiperazin-1-yl)methyl)phenyl)-4-methyl-2-(pyrimidin-5-yl)-1,2,3,4-tetrahydroisoquinoline-7-carboxamide]
DDR2; cells without unit
  IC50: 0.94 µM
c-Kit
  IC50: > 10000 nM
DDR1
  IC50: 66.6 nM
